In patent publication US7163952B2, “Azole compound and medicinal use thereof” (Japan Tobacco Inc., priority 2001, dated 2007):
Where a name gives a salt, the structure may show the parent alone.

Row | Structure (SMILES) | melting point
1 | CN(Cc1ccc(C(=O)OCC(=O)OC(C)(C)C)cc1)c1nc(-c2ccc(OCc3ccc(C4CCCCC4)cc3)cc2)cs1 [Example 267, tert-butoxycarbonylmethyl 4-((N-(4-(4-(4-cyclohexylbenzyloxy)phenyl)-2-thiazolyl)-N-methylamino)methyl)benzoate] | 122 to 123 °C
2 | CN(Cc1ccc(C(F)(F)F)cc1)c1ccc(-c2csc(N(C)c3ccc(C(=O)O)cc3)n2)cc1 [Example 137, 4-(N-methyl-N-(4-(4-(N-methyl-N-(4-trifluoromethylbenzyl)amino)phenyl)-2-thiazolyl)amino)benzoic acid] | 218 to 220 °C
3 | CC(C)(c1ccc(C(=O)O)cc1)c1nc(-c2ccc(NC(=O)c3ccc(N4CCOCC4)cc3)cc2)cs1 [Example 44, 4-(1-methyl-1-(4-(4-(4-morpholinobenzoylamino)phenyl)-2-thiazolyl)ethyl)benzoic acid] | 290 °C (dec.)
4 | CC(C)N(c1ccc(C(=O)[O-])cc1)c1nc(-c2ccc(NC(=O)c3ccc(N4CCN(C)CC4)cc3)cc2)cs1.[Na+] [Example 37, sodium 4-(N-isopropyl-N-(4-(4-(4-(4-methyl-1-piperazinyl)benzoylamino)phenyl)-2-thiazolyl)amino)benzoate] | 230 °C (dec.)
5 | CN(Cc1ccc(C2CCCCC2)cc1)c1ccc(-c2csc(N(C)Cc3ccc(C(=O)O)cc3)n2)cc1.O=S(=O)(O)O | 130 °C (dec.)
6 | CN(c1ccc(C(=O)O)cc1)c1nc(-c2ccc(NC(=O)c3ccc(C4CCCCC4)cc3)cc2)cs1 [Example 19, 4-(N-(4-(4-(4-cyclohexylbenzoylamino)phenyl)-2-thiazolyl)-N-methylamino)benzoic acid] | 250 °C (dec.)
7 | O=C(O)c1cccc(N(CC2CCCCC2)c2nc(-c3cc(Cl)ccc3OCc3ccccc3)cs2)c1 [Example 181, 3-(N-(4-(2-benzyloxy-5-chlorophenyl)-2-thiazolyl)-N-cyclohexylmethylamino)benzoic acid] | 98 to 100 °C
8 | CN(Cc1ccc(C2CCCCC2)cc1)c1ccc(-c2csc(N(C)Cc3ccc(C(=O)O)cc3)n2)cn1 [Example 226, 4-((N-(4-(6-(N-(4-cyclohexylbenzyl)-N-methylamino)-3-pyridyl)-2-thiazolyl)-N-methylamino)methyl)benzoic acid] | 157 to 159 °C
9 | O=C(O)c1ccc(COc2cc(C(=O)O)ccc2Nc2nc(-c3ccc(OCc4ccc(C5CCCCC5)cc4)cc3)cs2)cc1 [Example 74, 3-(4-carboxybenzyloxy)-4-(4-(4-(4-cyclohexylbenzyloxy)phenyl)-2-thiazolylamino)benzoic acid] | 230 °C (dec.)
10 | CC(C)N(Cc1cccc(C(=O)O)c1)c1nc(-c2ccc(OCc3ccc(C4CCCCC4)cc3)cc2)cs1 [Example 87, 3-((N-(4-(4-(4-cyclohexylbenzyloxy)phenyl)-2-thiazolyl)-N-isopropylamino)methyl)benzoic acid] | 196 to 197 °C
11 | CC(C)(C)c1ccc(COc2ccc3nc(-c4csc(N(CC5CCCCC5)c5ccc(C(=O)O)cc5)n4)oc3c2)cc1 [Example 188, 4-(N-(4-(6-(4-tert-butylbenzyloxy)-2-benzooxazolyl)-2-thiazolyl)-N-cyclohexylmethylamino)benzoic acid] | 230 °C (dec.)
12 | CC(C)N(c1ccc(C(=O)O)cc1)c1nc(-c2nc3ccc(OCc4ccc(Cl)c(Cl)c4)cc3o2)cs1 [Example 183, 4-(N-(4-(6-(3,4-dichlorobenzyloxy)-2-benzooxazolyl)-2-thiazolyl)-N-isopropylamino)benzoic acid] | 230 °C
13 | O=C(O)c1ccc(N(CCN2CCCCC2)c2nc(-c3ccc(OCc4ccc(Cl)c(Cl)c4)cc3)cs2)cc1 [Example 98, 4-(N-(4-(4-(3,4-dichlorobenzyloxy)phenyl)-2-thiazolyl)-N-(2-piperidinoethyl)amino)benzoic acid] | 230 °C (dec.)
14 | CN(c1ccc(C(=O)O)cc1)c1nc(-c2cccc(OCc3ccc(C4CCCCC4)cc3)c2)cs1 [Example 139, 4-(N-(4-(3-(4-cyclohexylbenzyloxy)phenyl)-2-thiazolyl)-N-methylamino)benzoic acid] | 250 °C (dec.)
15 | CC(C)N(c1ccc(OCC(=O)O)cc1)c1nc(-c2ccc(NC(=O)C3CCCCC3)cc2)cs1 [Example 50, (4-(N-(4-(4-(cyclohexanecarbonylamino)phenyl)-2-thiazolyl)-N-isopropylamino)phenoxy)acetic acid] | 225 °C (dec.)
16 | CC(C)N(Cc1ccc(C(=O)O)cc1)c1nc(-c2ccc(NS(=O)(=O)c3ccc(C(F)(F)F)cc3)cc2)cs1 [Example 106, 4-((N-isopropyl-N-(4-(4-(4-trifluoromethylbenzenesulfonylamino)phenyl)-2-thiazolyl)amino)methyl)benzoic acid] | 132 to 134 °C
17 | CC(C)(C)c1ccc(COc2ccc(-c3csc(Cc4ccc(C(=O)O)cc4)n3)cc2)cc1 [Example 47, 4-(4-(4-(4-tert-butylbenzyloxy)phenyl)-2-thiazolylmethyl)benzoic acid] | 223 to 228 °C

Row | Structure (SMILES) | melting point
18 | O=C(O)c1ccc(C2(c3nc(-c4ccc(OCc5ccc(Cl)c(Cl)c5)cc4)cs3)CCCCC2)cc1 [Example 93, 4-(1-(4-(4-(3,4-dichlorobenzyloxy)phenyl)-2-thiazolyl)cyclohexyl)benzoic acid] | 168 to 171 °C
19 | O=C(O)c1ccc(N(CCC2CCCCC2)c2nc(-c3cc(Cl)ccc3OCc3ccc(C(F)(F)F)cc3)cs2)cc1 [Example 177, 4-(N-(4-(5-chloro-2-(4-trifluoromethylbenzyloxy)phenyl)-2-thiazolyl)-N-(2-cyclohexylethyl)amino)benzoic acid] | 170 to 175 °C
20 | CN(Cc1ccc(C(=O)O)cc1)c1nc(-c2ccc(N(C)Cc3ccc(C4CCCCC4)cc3)c(Cl)c2)cs1 [Example 242, 4-((N-(4-(3-chloro-4-(N-(4-cyclohexylbenzyl)-N-methylamino)phenyl)-2-thiazolyl)-N-methylamino)methyl)benzoic acid] | 149 to 150 °C
21 | CC(C)N(Cc1ccc(C(=O)O)cc1)c1nc(-c2ccc(NS(=O)(=O)c3ccc(Cl)c(Cl)c3)cc2)cs1 [Example 105, 4-((N-(4-(4-(3,4-dichlorobenzenesulfonylamino)phenyl)-2-thiazolyl)-N-isopropylamino)methyl)benzoic acid] | 193 to 195 °C
22 | CN(CCC1Cc2ccccc2C1)c1ccc(-c2csc(N(C)Cc3ccc(C(=O)O)cc3)n2)cc1 [Example 223, 4-((N-(4-(4-(N-(2-(2-indanyl)ethyl)-N-methylamino)phenyl)-2-thiazolyl)-N-methylamino)methyl)benzoic acid] | 174 to 176 °C
23 | COc1ccc(OCc2ccc(C(F)(F)F)cc2)c(-c2csc(N(CCC3CCCCC3)Cc3ccc(C(=O)O)cc3)n2)c1 [Example 166, 4-((N-(2-cyclohexylethyl)-N-(4-(5-methoxy-2-(4-trifluoromethylbenzyloxy)phenyl)-2-thiazolyl)amino)methyl)benzoic acid] | 183 to 184 °C
24 | CC(C)Cc1ccc(CNc2ccc(-c3csc(N(CC4CCCCC4)c4ccc(C(=O)O)cc4)n3)cc2)cc1 [Example 131, 4-(N-cyclohexylmethyl-N-(4-(4-(4-isobutylbenzylamino)phenyl)-2-thiazolyl)amino)benzoic acid] | 167 to 169 °C
25 | CN(c1ccc(C(=O)O)cc1)c1nc(-c2cc(Cl)ccc2OCc2ccccc2)cs1 [Example 151, 4-(N-(4-(2-benzyloxy-5-chlorophenyl)-2-thiazolyl)-N-methylamino)benzoic acid] | 211 to 212 °C
26 | CC(C)N(Cc1ccc(C(=O)O)cc1)c1nc(-c2ccc(OCc3cccc(N4CCCCC4)c3)cc2)cs1 (as salt: hydrochloride) [Example 127, 4-((N-isopropyl-N-(4-(4-(3-piperidinobenzyloxy)phenyl)-2-thiazolyl)amino)methyl)benzoic acid dihydrochloride] | 135 to 140 °C
27 | CN(Cc1ccc(C2CCCCC2)cc1)c1ccc(-c2csc(N(C)c3ccc(C(=O)O)cc3)n2)cc1 [Example 132, 4-(N-(4-(4-(N-(4-cyclohexylbenzyl)-N-methylamino)phenyl)-2-thiazolyl)-N-methylamino)benzoic acid] | 185 to 189 °C
28 | CN(Cc1ccc(Cl)c(Cl)c1)c1ccc(-c2csc(N(Cc3ccc(C(=O)O)cc3)CC3CCCCC3)n2)cc1 [Example 118, 4-((N-cyclohexylmethyl-N-(4-(4-(N-(3,4-dichlorobenzyl)-N-methylamino)phenyl)-2-thiazolyl)amino)methyl)benzoic acid] | 125 to 127 °C
29 | CC(C)OC(=O)OC(C)OC(=O)c1ccc(CN(C)c2nc(-c3ccc(OCc4ccc(C5CCCCC5)cc4)cc3)cs2)cc1 (stereo not shown) [Example 271, 1-isopropoxycarbonyloxyethyl 4-((N-(4-(4-(4-cyclohexylbenzyloxy)phenyl)-2-thiazolyl)-N-methylamino)methyl)benzoate] | 76 to 84 °C
30 | CC(C)(c1ccc(C(=O)O)cc1)c1nc(-c2cc(Cl)ccc2OCc2ccccc2)cs1 [Example 149, 4-(1-(4-(2-benzyloxy-5-chlorophenyl)-2-thiazolyl)-1-methylethyl)benzoic acid] | 152 to 154 °C
31 | CC1CCN(c2ccc(C(=O)Nc3ccc(-c4csc(N(c5ccc(C(=O)O)cc5)C(C)C)n4)cc3)cc2)CC1.Cl | 230 °C (dec.)
32 | CN(Cc1ccc(C2CCOCC2)cc1)c1ccc(-c2csc(N(C)Cc3ccc(C(=O)O)cc3)n2)cc1 [Example 210, 4-((N-methyl-N-(4-(4-(N-methyl-N-(4-(tetrahydropyran-4-yl)benzyl)amino)phenyl)-2-thiazolyl)amino)methyl)benzoic acid] | 225 to 227 °C
33 | COc1ccc(OCc2ccc(C3CCCCC3)cc2)c(-c2csc(Nc3ccc(C(=O)O)cc3)n2)c1 [Example 157, 4-(4-(2-(4-cyclohexylbenzyloxy)-5-methoxyphenyl)-2-thiazolylamino)benzoic acid] | 230 to 234 °C
34 | CCN(c1ccc(C(=O)O)cc1)c1nc(-c2cccc(OCc3ccc(C4CCCCC4)cc3)c2)cs1 [Example 140, 4-(N-(4-(3-(4-cyclohexylbenzyloxy)phenyl)-2-thiazolyl)-N-ethylamino)benzoic acid] | 179 to 180 °C
